Here are results for four compounds from PMC12336229, “Peptide-mimetics derived from leucyl-tRNA synthetase are potential agents for the therapy of mt-tRNA related diseases” (Frontiers in Pharmacology, 2025).

A short description of series [1]: Plasma stability (UPLC-MS). In kind it is in vitro ADME, human. To be noted: human EDTA plasma from four healthy volunteers, 37°C, gentle shaking, UPLC-MS (SIR); for remaining at 72 h, 0.2 mM: peak area vs time 0, read-out: Amount of detectable compound after incubation with human plasma. As for the experimental part:
To assess whether the β32_33 peptide, PMT, PMT-8a and PMT-8b peptide-mimetics are stable in blood, we set up a chromatographic assay able to evaluate compound concentration after incubation in human plasma.
Four different samples from healthy volunteers were used. Blood was drawn by venepuncture in vacutainer containing EDTA as an anticoagulant. Plasma was separated by centrifugation and immediately used for the experiments. Each compound was dissolved in 500 μL plasma at a final concentration of 0.2 mM and split into two aliquots, one of which was immediately analysed to assess the basal compound level (T0); the other was incubated at 37°C under gentle shaking, and the amount of each compound was measured at different time points (i.e., 1.5, 3, 6 and 72 h).
To perform chromatographic analyses, the samples were treated with 3 volumes of acetonitrile containing 1% formic acid and then extracted by using the Ostro™ pass-through sample preparation system to remove proteins and phospholipids. Samples were dried under vacuum, resuspended in 100 μL of 0.1% formic acid containing 5% acetonitrile, and then injected directly onto the chromatographic column.
Chromatographic analyses were performed on a Water Acquity H-Class UPLC system (Waters, Milford, MA, United States), including a quaternary solvent manager (QSM), a sample manager with a flow-through needle system (FTN), a photodiode array detector (PDA) and a single-quadruple mass detector with electrospray ionization source (ACQUITY QDa). Analyses were performed on a reverse phase C18 column (75 mm × 3.2 mm i. d., 2.5 μm particle size). The mobile phase was solvent A, 0.1% formic acid in water, and solvent B, 0.1% formic acid in acetonitrile. The flow rate was 0.5 mL/min, the column temperature was set at 25°C and the elution was performed by linearly increasing the concentration of solvent B up to 70% in 7 min. Mass spectrometric detection was performed in the positive electrospray ionization mode, using nitrogen as the nebulizer gas. Analyses were performed in the Total Ion Current (TIC) mode with a mass range of 100–1200 m/z. The capillary voltage was 0.8 kV, cone voltage 8 V, ion source temperature 120°C and probe temperature 600°C. Quantification was performed by Selected Ion Recording (SIR): at m/z = 917.88, corresponding to the [M+2H]^2+ ion obtained from either β32_33 peptide or PMT; at m/z = 961.42, corresponding to the [M + H] ^+ obtained from PMT-8a; and at m/z = 869.48, corresponding to the [M + H]^+ ion obtained from PMT-8b.

For series [2] the following is noted: healthy animals; reached immediately, stable up to 24 h after injection; ref Peng et al., 2018; cited from earlier work. The source says:
PMT radiolabelling with ^64Cu allowed us to follow the in vivo distribution of the peptide in the body districts of healthy animals over time.

Series [3] concerns mutant cybrids. Put plainly: Confocal fluorescence microscopy, co-localization with mitochondria (Mitotracker Red). In kind it is cell-based, human. The conditions noted are these: Cy5 constructs 0.25 µM in glucose medium, imaged after 24 h, Mitotracker Red; mean ± SEM of at least five images. As for the experimental part:
Previously established osteosarcoma-derived (143B.TK-) cybrid cell lines from patients, which bear either the m.3243A>G mutation in mt-tRNA^Leu(UUR) or the m.8344A>G mutation in mt-tRNA^Lys and controls ([Perli et al., 2014]; [Perli et al., 2016]; [Perli et al., 2020]) were used.
Constructs made of compounds listed in Table 1, comprising D-peptides linked to the Cy5 fluorophore via maleimide cross-linker, were administered to sub-confluent cybrid cell cultures at 0.25 µM in glucose medium. About 24 h after treatment with each construct, cells were incubated with 200 nM Mitotracker Red FM (LifeTechnologies Italia, Monza, Italy) for 30 min at 37°C.
Subsequently, cells were visualized by confocal microscopy. Images of 800 × 800 px (at 88 nm/px) were acquired at the Olympus iX83 FluoView1200 laser scanning confocal microscope using a 60 × NA1,35 oil objective (Olympus Italia SRL Milano, Italy), zoom 3×, 559 nm, and 635 nm lasers and filter setting for Mitotracker Red and Cy5. The fluorescence images were analysed with the ImageJ software ([Rasband, 2018]) to determine the Pearson’s correlation coefficient.
For a subset of experiments, we evaluated the mt localization of constructs up to 72 h after treatment. PMT and PMT fragments were administered to sub-confluent cybrids at a concentration of 0.25 µM in the glucose medium. At 24-, 48- and 72-h after treatment, cells were incubated with Mitotracker Red and visualized by confocal microscopy. After each confocal imaging section, a fresh glucose medium was added to the cells, which were maintained under standard conditions (a humidified atmosphere of 95% air and 5% CO2 at 37°C).

Square brackets hold non-standard residues; d marks the D form. Peptide text beside a SMILES is read from it.

In the case of `CC[C@@H](C)[C@@H](NC(=O)[C@@H](CC(C)C)NC(=O)[C@@H](C)NC(=O)[C@H](NC(=O)[C@@H](CCCNC(=N)N)NC(=O)[C@H]1CCCN1C(=O)[C@@H](CO)NC(=O)[C@H](N)CC(C)C)[C@H](C)O)C(N)=O` [PMT-8b] (H-[dL][dS][dP][dR][dT][dA][dL][dI]-NH2), the remaining at 72 h, 0.2 mM in series [1] (72 h) is > 85%.

Take `CC(C)C[C@@H](NC(=O)[C@@H](Cc1ccccc1)NC(=O)[C@@H](CO)NC(=O)[C@@H](CCCCN)NC(=O)[C@H](N)CCCCN)C(=O)N[C@H](CO)C(=O)N1CCC[C@@H]1C(=O)N[C@H](CCCNC(=N)N)C(N)=O` [PMT-8a] (H-[dK][dK][dS][dF][dL][dS][dP][dR]-NH2): in series [1] (72 h), the remaining at 72 h, 0.2 mM is > 90%.

Turning to `[64Cu]` [free ^64Cu], the “Radioactivity concentration in different cortical regions” value in series [2] is on record as 0.4–0.6 %ID/mL.

As for `CC[C@H](C)[C@H](NC(=O)[C@H](CC(C)C)NC(=O)[C@H](C)NC(=O)[C@@H](NC(=O)[C@H](CCCNC(=N)N)NC(=O)[C@@H]1CCCN1C(=O)[C@H](CO)NC(=O)[C@H](CC(C)C)NC(=O)[C@H](Cc1ccccc1)NC(=O)[C@H](CO)NC(=O)[C@H](CCCCN)NC(=O)[C@@H](N)CCCCN)[C@@H](C)O)C(=O)N[C@@H](CC(N)=O)C(=O)N[C@@H](Cc1ccccc1)C(=O)N[C@@H](CC(C)C)C(=O)N[C@H](C(N)=O)C(C)C` [β32_33 peptide], the metabolised at 1.5 h, 0.2 mM in series [1] (1.5 h, peak area vs time 0, read-out: Decrease of amount of compound after incubation with human plasma) was 90%. For the same compound, the “Amount of detectable compound after incubation with human plasma” value in series [1] (72 h, 0.2 mM, peak area vs time 0) is given as “almost undetectable”. In series [3], the “Pearson's correlation coefficient (PCC), mt localization” value is listed as 0.78 ± 0.06.
